Measurements as given in ChEMBL document CHEMBL1759870, “Identification, structural properties and chelating capacity of miltipolone as a broad-spectrum inhibitor to cancer cells” (Eur J Med Chem, 2011).

Experiments:
HUVEC = test: Antiproliferative activity against human HUVEC cells after 96 hrs by MTT assay; format: cell-based
Bel-7402 = test: Antiproliferative activity against human Bel7402 cells after 96 hrs by MTT assay; format: functional, cell-based; conditions: Bel-7402, 96 h
HeLa = test: Antiproliferative activity against human HeLa cells after 96 hrs by MTT assay; format: functional, cell-based
HT-1080 = test: Antiproliferative activity against human HT1080 cells after 96 hrs by MTT assay; format: functional, cell-based; conditions: HT-1080, 96 h
A-375 = test: Antiproliferative activity against human A375 cells after 96 hrs by MTT assay; format: functional, cell-based; conditions: A-375, 96 h
NCI-N87 = test: Antiproliferative activity against human NCI-N87 cells after 96 hrs by MTT assay; format: functional, cell-based; conditions: NCI-N87, 96 h
PANC-1 = test: Antiproliferative activity against human PANC1 cells after 96 hrs by MTT assay; format: functional, cell-based; conditions: PANC-1, 96 h

| SMILES | IC50 (HUVEC) [nM] | IC50 (Bel-7402) [nM] | IC50 (HeLa) [nM] | IC50 (HT-1080) [nM] | IC50 (A-375) [nM] | IC50 (NCI-N87) [nM] | IC50 (PANC-1) [nM] |
| --- | --- | --- | --- | --- | --- | --- | --- |
| CO[C@@H]1[C@H](OC(=O)NC(=O)CCl)CC[C@]2(CO2)[C@H]1[C@@]1(C)O[C@@H]1CC=C(C)C [O-CHLOROACETYLCARBAMOYLFUMAGILLOL] | 0.76 | – | – | – | – | – | – |
| CC(=O)O[C@H]1C(=O)[C@@]2(C)[C@H]([C@H](OC(=O)c3ccccc3)[C@]3(O)C[C@H](OC(=O)[C@H](O)[C@@H](NC(=O)c4ccccc4)c4ccccc4)C(C)=C1C3(C)C)[C@]1(OC(C)=O)CO[C@@H]1C[C@@H]2O [PACLITAXEL] | – | 578 | 100 | 1.2 | 4.6 | 5.9 | 384 |
